Data taken from patent US9006187B2, “Thiophene derivative as SGLT2 inhibitor and pharmaceutical composition comprising same” (Green Cross Corporation, priority 2010, dated 2015).

target: Human SGLT2 (hSGLT2) (Homo sapiens (Human), UniProt P31639); assay: Inhibitory effects on human SGLT2 activities: sodium-dependent 14C-AMG glucose transport (uptake) assay in CHO cells expressing hSGLT2; settings: read-out: hSGLT2 Inhibitory Activity IC50; CHO cells stably expressing hSGLT2; 14C-AMG uptake, 37° C., 2 h; single determinations for examples; in-house assay
Sequence (P31639 whole entry): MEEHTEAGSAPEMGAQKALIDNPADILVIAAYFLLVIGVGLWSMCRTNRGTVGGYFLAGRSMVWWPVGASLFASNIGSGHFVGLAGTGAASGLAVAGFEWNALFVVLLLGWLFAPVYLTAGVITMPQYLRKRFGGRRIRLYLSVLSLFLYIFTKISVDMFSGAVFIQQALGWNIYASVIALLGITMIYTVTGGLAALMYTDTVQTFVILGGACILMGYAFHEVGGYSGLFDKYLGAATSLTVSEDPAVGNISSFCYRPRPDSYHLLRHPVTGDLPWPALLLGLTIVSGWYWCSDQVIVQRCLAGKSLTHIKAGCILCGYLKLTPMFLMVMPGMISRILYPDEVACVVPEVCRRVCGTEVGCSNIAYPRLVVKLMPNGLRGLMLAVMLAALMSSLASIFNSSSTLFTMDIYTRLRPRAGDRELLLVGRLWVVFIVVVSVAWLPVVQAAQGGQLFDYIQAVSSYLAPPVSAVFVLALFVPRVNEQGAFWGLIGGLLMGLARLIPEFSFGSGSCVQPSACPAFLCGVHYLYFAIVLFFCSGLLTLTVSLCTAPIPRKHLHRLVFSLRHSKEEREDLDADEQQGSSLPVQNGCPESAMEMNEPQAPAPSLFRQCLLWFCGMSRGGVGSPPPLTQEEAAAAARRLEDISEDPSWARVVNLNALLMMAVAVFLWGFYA

| IC50 | SMILES |
| --- | --- |
| 34.6 nM | CCOc1ccc(Cc2cc([C@@H]3O[C@H](CO)[C@@H](O)[C@H](O)[C@H]3O)sc2Cl)cc1 [Example 1, (2R,3R,4S,5S,6R)-2-(5-chloro-4-(4-ethoxybenzyl)thiophen-2-yl)-6-(hydroxymethyl)-tetrahydro-2H-pyran-3,4,5-triol] |
| 86.5 nM | COc1ccc(Cc2cc([C@@H]3O[C@H](CO)[C@@H](O)[C@H](O)[C@H]3O)sc2Cl)cc1 [Example 2, (2R,3R,4S,5S,6R)-2-(5-chloro-4-(4-methoxybenzyl)thiophen-2-yl)-6-(hydroxymethyl)-tetrahydro-2H-pyran-3,4,5-triol] |
| 91.3 nM | OC[C@H]1O[C@@H](c2cc(Cc3ccc(-c4ccc(F)cc4)s3)c(Cl)s2)[C@H](O)[C@@H](O)[C@@H]1O [Example 3, (2R,3R,4S,5S,6R)-2-(5-chloro-4-((5-(4-fluorophenyl)thiophen-2-yl)methyl)thiophen-2-yl)-6-(hydroxymethyl)-tetrahydro-2H-pyran-3,4,5-triol] |
| 54.6 nM | C=CCOc1ccc(Cc2cc([C@@H]3O[C@H](CO)[C@@H](O)[C@H](O)[C@H]3O)sc2Cl)cc1 [Example 4, (2R,3R,4S,5S,6R)-2-(4-(4-(allyloxy)benzyl)-5-chlorothiophen-2-yl)-6-(hydroxymethyl)-tetrahydro-2H-pyran-3,4,5-triol] |
| 65 nM | CCCOc1ccc(Cc2cc([C@@H]3O[C@H](CO)[C@@H](O)[C@H](O)[C@H]3O)sc2Cl)cc1 [Example 5, (2R,3R,4S,5S,6R)-2-(5-chloro-4-(4-propoxybenzyl)thiophen-2-yl)-6-(hydroxymethyl)-tetrahydro-2H-pyran-3,4,5-triol] |
| 140 nM | OC[C@H]1O[C@@H](c2cc(Cc3ccc(O)cc3)c(Cl)s2)[C@H](O)[C@@H](O)[C@@H]1O [Example 6, (2R,3R,4S,5S,6R)-2-(5-chloro-4-(4-hydroxybenzyl)thiophen-2-yl)-6-(hydroxymethyl)-tetrahydro-2H-pyran-3,4,5-triol] |
| 48.4 nM | CCSc1ccc(Cc2cc([C@@H]3O[C@H](CO)[C@@H](O)[C@H](O)[C@H]3O)sc2Cl)cc1 [Example 7, (2R,3R,4S,5S,6R)-2-(5-chloro-4-(4-(ethylthio)benzyl)thiophen-2-yl)-6-(hydroxymethyl)-tetrahydro-2H-pyran-3,4,5-triol] |
| 111 nM | C#CCOc1ccc(Cc2cc([C@@H]3O[C@H](CO)[C@@H](O)[C@H](O)[C@H]3O)sc2Cl)cc1 [Example 8, (2R,3R,4S,5S,6R)-2-(5-chloro-4-(4-(prop-2-ynyloxy)benzyl)thiophen-2-yl)-6-(hydroxymethyl)-tetrahydro-2H-pyran-3,4,5-triol] |
| 11.9 nM | CC(C)Oc1ccc(Cc2cc([C@@H]3O[C@H](CO)[C@@H](O)[C@H](O)[C@H]3O)sc2Cl)cc1 [Example 9, (2R,3R,4S,5S,6R)-2-(5-chloro-4-(4-isopropoxybenzyl)thiophen-2-yl)-6-(hydroxymethyl)-tetrahydro-2H-pyran-3,4,5-triol] |
| 115 nM | COCCOc1ccc(Cc2cc([C@@H]3O[C@H](CO)[C@@H](O)[C@H](O)[C@H]3O)sc2Cl)cc1 [Example 10, (2R,3R,4S,5S,6R)-2-(5-chloro-4-(4-(2-methoxyethoxy)benzyl)thiophen-2-yl)-6-(hydroxymethyl)-tetrahydro-2H-pyran-3,4,5-triol] |
| 57.2 nM | OC[C@H]1O[C@@H](c2cc(Cc3ccc(OC4CCCC4)cc3)c(Cl)s2)[C@H](O)[C@@H](O)[C@@H]1O [Example 11, (2R,3R,4S,5S,6R)-2-(5-chloro-4-(4-(cyclopentyloxy)benzyl)thiophen-2-yl)-6-(hydroxymethyl)-tetrahydro-2H-pyran-3,4,5-triol] |
| 12.8 nM | CSc1ccc(Cc2cc([C@@H]3O[C@H](CO)[C@@H](O)[C@H](O)[C@H]3O)sc2Cl)cc1 [Example 12, (2R,3R,4S,5S,6R)-2-(5-chloro-4-(4-(methylthio)benzyl)thiophen-2-yl)-6-(hydroxymethyl)-tetrahydro-2H-pyran-3,4,5-triol] |
| 70.7 nM | CCOCCOc1ccc(Cc2cc([C@@H]3O[C@H](CO)[C@@H](O)[C@H](O)[C@H]3O)sc2Cl)cc1 [Example 13, (2R,3R,4S,5S,6R)-2-(5-chloro-4-(4-(2-ethoxyethoxy)benzyl)thiophen-2-yl)-6-(hydroxymethyl)-tetrahydro-2H-pyran-3,4,5-triol] |
| 60.2 nM | Cc1ccc(Cc2cc([C@@H]3O[C@H](CO)[C@@H](O)[C@H](O)[C@H]3O)sc2Cl)cc1 [Example 14, (2R,3R,4S,5S,6R)-2-(5-chloro-4-(4-methylbenzyl)thiophen-2-yl)-6-(hydroxymethyl)-tetrahydro-2H-pyran-3,4,5-triol] |
| 94 nM | CC#CCOc1ccc(Cc2cc([C@@H]3O[C@H](CO)[C@@H](O)[C@H](O)[C@H]3O)sc2Cl)cc1 [Example 15, (2R,3R,4S,5S,6R)-2-(4-(4-(but-2-ynyloxy)benzyl)-5-chlorothiophen-2-yl)-6-(hydroxymethyl)-tetrahydro-2H-pyran-3,4,5-triol] |
| 162 nM | OC[C@H]1O[C@@H](c2cc(Cc3ccc(OC4CCOC4)cc3)c(Cl)s2)[C@H](O)[C@@H](O)[C@@H]1O (stereo partly drawn) [Example 16, (2R,3R,4S,5S,6R)-2-(5-chloro-4-(4-(tetrahydrofuran-3-yloxy)benzyl)thiophen-2-yl)-6-(hydroxymethyl)-tetrahydro-2H-pyran-3,4,5-triol] |

| IC50 | SMILES |
| --- | --- |
| 4.47 nM | CCc1ccc(Cc2cc([C@@H]3O[C@H](CO)[C@@H](O)[C@H](O)[C@H]3O)sc2Cl)cc1 [Example 17, (2R,3R,4S,5S,6R)-2-(5-chloro-4-(4-ethylbenzyl)thiophen-2-yl)-6-(hydroxymethyl)-tetrahydro-2H-pyran-3,4,5-triol] |
| 10.3 nM | CCCc1ccc(Cc2cc([C@@H]3O[C@H](CO)[C@@H](O)[C@H](O)[C@H]3O)sc2Cl)cc1 [Example 18, (2R,3R,4S,5S,6R)-2-(5-chloro-4-(4-propylbenzyl)thiophen-2-yl)-6-(hydroxymethyl)-tetrahydro-2H-pyran-3,4,5-triol] |
| 8.73 nM | CCOc1ccc(Cc2cc([C@@H]3O[C@H](CO)[C@@H](O)[C@H](O)[C@H]3O)sc2C)cc1 [Example 19, (2R,3R,4S,5S,6R)-2-(4-(4-ethoxybenzyl)-5-methylthiophen-2-yl)-6-(hydroxymethyl)-tetrahydro-2H-pyran-3,4,5-triol] |
| 11.5 nM | COc1ccc(Cc2cc([C@@H]3O[C@H](CO)[C@@H](O)[C@H](O)[C@H]3O)sc2C)cc1 [Example 20, (2R,3S,4S,5R,6R)-2-(hydroxymethyl)-6-(4-(4-methoxybenzyl)-5-methylthiophen-2-yl)-tetrahydro-2H-pyran-3,4,5-triol] |
| 21.1 nM | Cc1sc([C@@H]2O[C@H](CO)[C@@H](O)[C@H](O)[C@H]2O)cc1Cc1ccc(-c2ccc(F)cc2)s1 [Example 21, (2R,3R,4S,5S,6R)-2-(4-((5-(4-fluorophenyl)thiophen-2-yl)methyl)-5-methylthiophen-2-yl)-6-(hydroxymethyl)-tetrahydro-2H-pyran-3,4,5-triol] |
| 27.5 nM | C=CCOc1ccc(Cc2cc([C@@H]3O[C@H](CO)[C@@H](O)[C@H](O)[C@H]3O)sc2C)cc1 [Example 22, (2R,3R,4S,5S,6R)-2-(4-(4-(allyloxy)benzyl)-5-methylthiophen-2-yl)-6-(hydroxymethyl)-tetrahydro-2H-pyran-3,4,5-triol] |
| 50.2 nM | Cc1sc([C@@H]2O[C@H](CO)[C@@H](O)[C@H](O)[C@H]2O)cc1Cc1ccc(O)cc1 [Example 23, (2R,3R,4S,5S,6R)-2-(4-(4-hydroxybenzyl)-5-methylthiophen-2-yl)-6-(hydroxymethyl)-tetrahydro-2H-pyran-3,4,5-triol] |
| 59.8 nM | CCCc1ccc(Cc2sc([C@@H]3O[C@H](CO)[C@@H](O)[C@H](O)[C@H]3O)cc2C)cc1 [Example 24, (2R,3S,4S,5R,6R)-2-(hydroxymethyl)-6-(4-methyl-5-(4-propylbenzyl)thiophen-2-yl)tetrahydro-2H-pyran-3,4,5-triol] |
| 24.8 nM | CCc1ccc(Cc2sc([C@@H]3O[C@H](CO)[C@@H](O)[C@H](O)[C@H]3O)cc2C)cc1 [Example 25, (2R,3R,4S,5S,6R)-2-(5-(4-ethylbenzyl)-4-methylthiophen-2-yl)-6-(hydroxymethyl)tetrahydro-2H-pyran-3,4,5-triol] |
| 69.6 nM | Cc1ccc(Cc2sc([C@@H]3O[C@H](CO)[C@@H](O)[C@H](O)[C@H]3O)cc2C)cc1 [Example 26, (2R,3S,4S,5R,6R)-2-(hydroxymethyl)-6-(4-methyl-5-(4-methylbenzyl)thiophen-2-yl)tetrahydro-2H-pyran-3,4,5-triol] |
| 88.3 nM | Cc1cc([C@@H]2O[C@H](CO)[C@@H](O)[C@H](O)[C@H]2O)sc1Cc1ccc(C(C)(C)C)cc1 [Example 27, (2R,3R,4S,5S,6R)-2-(5-(4-tert-butylbenzyl)-4-methylthiophen-2-yl)-6-(hydroxymethyl)tetrahydro-2H-pyran-3,4,5-triol] |
| 451 nM | Cc1cc([C@@H]2O[C@H](CO)[C@@H](O)[C@H](O)[C@H]2O)sc1Cc1ccc(Cl)cc1 [Example 28, (2R,3R,4S,5S,6R)-2-(5-(4-chlorobenzyl)-4-methylthiophen-2-yl)-6-(hydroxymethyl)tetrahydro-2H-pyran-3,4,5-triol] |
| > 10000 nM | Cc1cc([C@@H]2O[C@H](CO)[C@@H](O)[C@H](O)[C@H]2O)sc1Cc1ccc(F)cc1 [Example 29, (2R,3R,4S,5S,6R)-2-(5-(4-fluorobenzyl)-4-methylthiophen-2-yl)-6-(hydroxymethyl)tetrahydro-2H-pyran-3,4,5-triol] |
| 68.9 nM | COc1ccc(Cc2sc([C@@H]3O[C@H](CO)[C@@H](O)[C@H](O)[C@H]3O)cc2C)cc1 [Example 30, (2R,3S,4S,5R,6R)-2-(hydroxymethyl)-6-(5-(4-methoxybenzyl)-4-methylthiophen-2-yl)tetrahydro-2H-pyran-3,4,5-triol] |
| 71.4 nM | CCOc1ccc(Cc2sc([C@@H]3O[C@H](CO)[C@@H](O)[C@H](O)[C@H]3O)cc2C)cc1 [Example 31, (2R,3R,4S,5S,6R)-2-(5-(4-ethoxybenzyl)-4-methylthiophen-2-yl)-6-(hydroxymethyl)tetrahydro-2H-pyran-3,4,5-triol] |
